According to patent publication US7846971B2, “N-halogenated amino acids, N,N-dihalogenated amino acids and derivatives; compositions and methods of using them” (Novabay Pharmaceuticals, Inc., priority 2005, dated 2010):
Converted amounts (≈) assume the structure as drawn. Where two headings read alike, the source gives them in different places.

Experiments:
[1] = system: Primary Human Skin Fibroblasts; experiment: XTT cytotoxicity assay on primary human skin fibroblasts; assay type: cell-based
Description: Cytotoxicity was assessed by a colorimetric assay system, initially described by Scudiero et al., using 3′-(phenylamino-carbonyl)-3,4-tetrazolium-bis (4-methoxy-6-nitro) benzene sulfonic acid hydrate (XTT), ProCheck™ cell viability assay (Evaluation of a soluble tetrazolium/formazan assay for cell growth and drug sensitivity in culture using human and other tumor cell lines described by Scudiero D A, Shoemaker R A H, Paul K D, Monks A, Tierney S, Nofziger T H, Currens M J, Seniff D, Boyd M R. Cancer Res. 1988 Septmeber 1;48(17):4827-33). […] Three cell types were used: mouse lung epithelial cells (L929), primary human skin fibroblast and primary human keratinocyte cells cultured in Dulbecco Modified Eagle's Medium and Keratinocyte defined medium with corresponding growth factors plus antibiotics. Cells were trypsinized and counted under the microscope and seeded at 1000-to-2000 cells per well of a flat-bottom 96-well plate. Cells were allowed to grow over-night at 37° C. Next day, tissue culture media was removed and cells were rinsed with fresh media 1× and then left in 50 μL of tissue culture media. Test articles were prepared as 2-fold dilutions and 200 μL was added into each set of 4-wells (total volume per well=250 μL). Cells were exposed to test articles for 60 min at room temperature. Immediately after the exposed time, test article from each well was removed and cells were fed with 250 μL of fresh media. Plates were incubated at 37° C. for 18-20 hours. The following day media was removed again and replaced with 100 μL/well of fresh media containing 10/100 μL XTT-reagent. Cells were incubated under growth conditions (5% CO2 at 37° C. humidified incubator), protected from light, until color development was achieved. Absorbance was read at 450 nm with reference wavelength at 750 nm using Molecular Device ThermoMax Plate reader, blanking the plate on the medium-only assay blank wells. Untreated cells receiving XTT reagents-only served as positive cell proliferation control.

[2] = system: human adenovirus type 5 (Ad5, McEwen strain); experiment: Antiviral plaque assay on A549 cell monolayer; assay type: cell-based; settings: virus mixed with sample 1 hr at 37C; for Effect on monolayer (plaques counted), 10^−0 undiluted: dilution 10^−0; for Effect on monolayer (plaques counted), 10^−1: dilution 10^−1; for Effect on monolayer (plaques counted), 10^−2: dilution 10^−2; for Effect on monolayer (plaques counted), 10^−3: dilution 10^−3; for Effect on monolayer (plaques counted), 10^−4: dilution 10^−4; for Effect on monolayer (plaques counted), 10^−5: dilution 10^−5; for Effect on monolayer (plaques counted), 10^−6: dilution 10^−6
Description: An equal volume of human adenovirus type 5 (Ad5, McEwen strain) was mixed with each of the three samples listed below. The mixtures were incubated at 37C for 1 hr and then diluted in tissue culture medium (Dulbecco's Modified Eagle Medium [DMEM] containing heat inactivated 2% fetal bovine serum). The mixtures were then diluted in 10-fold serial dilutions using the same diluent mentioned above. 0.1 ml of each diluted mixture was inoculated on to a A549 cell monolayer grown in 12 well plates (cell source, ATTC) and allowed to adsorb for 1 hr. The inoculum was removed and the monolayer rinsed with diluent and agarose/DMEM overlay applied. The plates were incubated at 37° C. in 5% CO2 atmosphere for 6 days. The monolayers were then fixed, stained and the plaques counted.

[3] = system: Escherichia coli (ATCC 11229); experiment: Bactericidal activity (colony count, MBC); assay type: cell-based
Description: To determine the bactericidal activity, we used Escherichia coli (ATCC 11229). The bacterial culture was diluted in sterile saline to prepare inocula. Various test articles were transferred to individual tubes already containing 1.0×10^5 to 2.0×10^5 Colony Forming Units (CFU)/mL bacteria and mixed by gentle vortexing and then incubated at 37° C. for 1 or 24 hours. In an attempt to mimic as far as possible the conditions, which could be produced in vivo if the test articles were used as antiseptics, bacterial plating in a Petri dish was performed immediately after the designated exposure time without the addition of a neutralizer, and independently with addition of neutralizer (as control). Thus, 0.1 mL was removed after 1 or 24 hours exposure times and plated. Plates were incubated at 37° C., and the numbers of bacteria were counted by direct colony count to numerate the surviving bacteria as CFU/mL. Positive growth controls were made with sterile 0.9% saline. All test articles were tested three times.

[4] = UV-vis spectrum and concentration of NNDCT solutions at varying pH; assay type: physicochemical; settings: 1.49 mM, pH 3.0 to 5.0
Description: The spectra and the concentrations of the solutions were measured on the UV-vis spectrometer.
Add 8.8 g NaCl, 2 ml of 1.0 M HCl, and 0.278 g of taurine into a 1000-ml volumetric flask, followed by adding about 800 ml of deionized water into the flask. Shake the flask to dissolve NaCl and taurine powders. Then add […] of 0.15M of the NaOCl solution into the flask. Fill the flask up to the mark with deionized water. Stir the solution with a magnetic stirring bar for 5 minutes. The concentration and the pH of the resulting solution were measured on a UV-vis spectrometer and a freshly calibrated Beckman pH meter. This solution has a concentration of 1.49 mM and a pH value of 3.85. […] The final pH of this solution is 3.0. […] The final pH of this solution is 4.85.

[5] = assay type: physicochemical
Text: NNDCT and NCT are spectrophotometrically distinguishable. NCT has a maximum absorbance at 252 nm. […] The solution was sealed in ampoules.

[6] = pH=1.88, after 100 hours; cited from earlier work
[7] = Volatility test, tightly vs loosely capped bottles; assay type: physicochemical; settings: 1.47 mM in 0.9% saline
Description: NNDCT is not volatile. A solution of 1.47 mM in 0.9% saline at pH 3.5 was filled in two glass bottles. One bottle was capped tightly and another was capped loosely.

[8] = XTT cytotoxicity assay on L929 cells; assay type: cell-based; settings: mouse
Description: Cytotoxicity was assessed by a colorimetric assay system, initially described by Scudiero et al., using 3′-(phenylamino-carbonyl)-3,4-tetrazolium-bis (4-methoxy-6-nitro) benzene sulfonic acid hydrate (XTT), ProCheck™ cell viability assay (Evaluation of a soluble tetrazolium/formazan assay for cell growth and drug sensitivity in culture using human and other tumor cell lines described by Scudiero D A, Shoemaker R A H, Paul K D, Monks A, Tierney S, Nofziger T H, Currens M J, Seniff D, Boyd M R. Cancer Res. 1988 Septmeber 1;48(17):4827-33). […] Three cell types were used: mouse lung epithelial cells (L929), primary human skin fibroblast and primary human keratinocyte cells cultured in Dulbecco Modified Eagle's Medium and Keratinocyte defined medium with corresponding growth factors plus antibiotics. Cells were trypsinized and counted under the microscope and seeded at 1000-to-2000 cells per well of a flat-bottom 96-well plate. Cells were allowed to grow over-night at 37° C. Next day, tissue culture media was removed and cells were rinsed with fresh media 1× and then left in 50 μL of tissue culture media. […] Absorbance was read at 450 nm with reference wavelength at 750 nm using Molecular Device ThermoMax Plate reader, blanking the plate on the medium-only assay blank wells. […]

[9] = assay type: physicochemical; remark: listed apart in the source
Text: N,N-dichlorotaurine can be identified and quantitatively determined by UV spectroscopy.

[10] = Homo sapiens, Skin fibroblast, Table 2, pH 3.5, in vitro cytotoxicity, read-out: IC50
[11] = Escherichia coli, ATCC11229, Table 2, pH 3.5, read-out: MBC

OCl [HOCl, hypochlorous acid, reference compound]
IC50 [1, 10]: 47 µg/mL (≈ 896 µM)
Effect on monolayer (plaques counted), 10^−0 undiluted [2]: 14
Effect on monolayer (plaques counted), 10^−1 [2]: 9
Effect on monolayer (plaques counted), 10^−2 [2]: 3
Effect on monolayer (plaques counted), 10^−3 [2]: 1
Effect on monolayer (plaques counted), 10^−4 [2]: 4
Effect on monolayer (plaques counted), 10^−5 [2]: 4
Effect on monolayer (plaques counted), 10^−6 [2]: 1
MBC [3, 11]: 0.16 µg/mL (≈ 3.05 µM)
effective antimicrobial concentration range ([3]; pH 3.5, 60 min, 37° C.): ≥ 0.016 mM
effective antimicrobial concentration range ([3]; pH 3.5, 24 hrs, 37° C.): ≥ 0.0016 mM

O=S(=O)(O)CCNCl [NCT, N-chlorotaurine]
factor by which less antimicrobial than NNDCT on an equal concentration basis [3]: 1000 fold
MBC ([3]; Escherichia coli, ATCC11229, 1 h, pH 9.5, read-out: MBC (Minimum Bactericidal Concentration)): 142 µg/mL (≈ 893 µM)

O=S(=O)(O)CCN(Cl)Cl [NNDCT, N,N-dichlorotaurine]
spectrum and concentration of NNDCT solution over pH range [4]: did not change
IC50 [1, 10]: 1440 µg/mL (≈ 7430 µM)
loss of N,N-dichlorotaurine ([5]; solution in a vial stored in a refrigerator, three months): no more than 13%
NNDCT lost ([5]; solution pH 3.5, sealed ampoules, refrigerator (4° C.), 4 weeks, initial 1.47 mM): 5.4%
loss of N,N-dichlorotaurine [6]: less than 5%
volatility ([7]; pH 3.5): not volatile
difference in concentration between tightly and loosely capped bottle ([7]; pH 3.5, 4 weeks, room temperature): no difference
viability at 60 min, 7 mM [8]: > 90%
killing efficiency of NNDCT at pH 3.5 as compared to NCT at pH 9.5 ([3]; 60 min exposure, 37° C.): 1000 fold
killing efficiency of NNDCT at pH 3.5 over NNDCT at pH 5.0 ([3]; 60 min exposure, 37° C.): about 300 fold
MBC ([3]; Escherichia coli, ATCC11229, 1 h, pH 3.5, isotonic solution, 60 min, 37° C., read-out: MBC (Minimum Bactericidal Concentration)): 0.136 µg/mL (≈ 0.701 µM)
MBC ([3]; Escherichia coli, ATCC11229, 1 h, pH 5.0, isotonic solution, 60 min, 37° C., read-out: MBC (Minimum Bactericidal Concentration)): 38 µg/mL (≈ 196 µM)
MBC [3, 11]: 0.29 µg/mL (≈ 1.49 µM)
effectiveness against E. coli compared with HOCl ([3]; pH 3.5): better or as effective
solubility in water [9]: very soluble

CC(C)(CS(=O)(=O)O)N(Cl)Cl [Sample 1, N,N-dichloro-1,1-dimethylethanesulphonic acid]
Effect on monolayer (plaques counted), 10^−0 undiluted [2]: Early toxic
Effect on monolayer (plaques counted), 10^−1 [2]: 28
Effect on monolayer (plaques counted), 10^−2 [2]: 17
Effect on monolayer (plaques counted), 10^−3 [2]: 3
Effect on monolayer (plaques counted), 10^−4 [2]: 3
Effect on monolayer (plaques counted), 10^−5 [2]: 3
Effect on monolayer (plaques counted), 10^−6 [2]: 9

Povidone-Iodine [reference compound]
IC50 ([1]; Table 2, pH 4.2, in vitro cytotoxicity): 2.5 µg/mL
MBC ([3]; Table 2, pH 4.2): 0.38 µg/mL
